# Tested on: Plasmodium berghei
# Assay: Luciferase/luciferin-expressing antifolate-resistant parasites were used to infect a culture of HepG2 cells that were pre-incubated with compounds. Infected hepatocytes emit light due to the luciferase reaction. Assay results are presented as the percent inhibition of light emission compared to control. […]
# Type: functional
# Conditions: sporozoite; for IC90: read-out: LUCIFERASE INFECTION ASSAY - IC90
# [1] = read-out: LUCIFERASE INFECTION ASSAY - IC50
SMILES,IC90,IC50 [1],other results
O=C(Nc1cccc(C(F)(F)F)c1)c1cc(Cl)c(=O)n(Cc2cccc(C(F)(F)F)c2)c1,> 6.95 µM,,"IC50 (HEPG2TOX_HILL_SLOPE 12.5, HEPG2TOX_R_SQUARED 0.604, PBLUC_HILL_SLOPE 13, PBLUC_R_SQUARED 0.312, read-out: LUCIFERASE INFECTION ASSAY - IC50): 6.47 µM"
CCCn1c(=O)n(CC(=O)Nc2ccc(C)c(C)c2)c(=O)c2c1nc(C(F)(F)F)n2CCOC,> 10 µM,,"IC50 (PBLUC_HILL_SLOPE 0.949, PBLUC_R_SQUARED 0.63, read-out: LUCIFERASE INFECTION ASSAY - IC50): 1.57 µM"
O=C(Nc1nccs1)C1CCCNC1 (centres undefined),> 10 µM,,"IC50 (PBLUC_HILL_SLOPE 12.1, PBLUC_R_SQUARED 0.548, read-out: LUCIFERASE INFECTION ASSAY - IC50): 8.7 µM"
CN(C)c1ccc(-c2cc(Nc3cccc(OCc4ccccc4)c3)ncn2)cc1,1.61 µM,,"IC50 (HEPG2TOX_HILL_SLOPE 1.6, HEPG2TOX_R_SQUARED 0.897, PBLUC_HILL_SLOPE 1.97, PBLUC_R_SQUARED 0.838, read-out: LUCIFERASE INFECTION ASSAY - IC50): 0.526 µM"
Cc1ccc(C(=O)Nc2cccc(CNC(C)c3ccc(F)cc3F)c2)cc1 (centres undefined),> 10 µM,> 10 µM,
Oc1c(C(Nc2ccccn2)c2ccc(Cl)cc2Cl)ccc2cccnc12 (centres undefined),5.13 µM,,"IC50 (FFLUC_HILL_SLOPE 3.3, FFLUC_R_SQUARED 0.0348, HEPG2TOX_HILL_SLOPE 1.34, HEPG2TOX_R_SQUARED 0.812, PBLUC_HILL_SLOPE 6.8, PBLUC_R_SQUARED 0.449, read-out: LUCIFERASE INFECTION ASSAY - IC50): 3.71 µM"
CCCn1c(=O)n(C)c(=O)c2c(SCc3cc(=O)oc4cc(CC)ccc34)nc(C(C)(C)C)nc21,> 10 µM,> 10 µM,
Nc1ncc(-c2cc(C(F)(F)F)cc(C(F)(F)F)c2)cc1-c1ccc(O)cc1,> 8.29 µM,> 8.29 µM,
CCOc1cc2c(cc1/C=C/C(=O)c1ccc(C)o1)OC(C)C2 (centres undefined),> 10 µM,,"IC50 (PBLUC_HILL_SLOPE 2.56, PBLUC_R_SQUARED 0.238, read-out: LUCIFERASE INFECTION ASSAY - IC50): 9.29 µM"
OCCNCCNCc1c(OCc2ccc(F)cc2)ccc2ccccc12,> 8.96 µM,> 8.96 µM,
COc1ccc(-c2nnc(SCn3nnc4ccccc4c3=O)n2-c2ccccc2C(C)C)cc1,> 10 µM,,"IC50 (FFLUC_HILL_SLOPE 2.15, FFLUC_R_SQUARED 0.39, read-out: LUCIFERASE INFECTION ASSAY - IC50): > 10 µM"
O=C1CC(c2ccccc2Br)c2c(ccc3ccccc23)N1 (centres undefined),> 9.37 µM,,"IC50 (HEPG2TOX_HILL_SLOPE 2.07, HEPG2TOX_R_SQUARED 0.801, PBLUC_HILL_SLOPE 1.69, PBLUC_R_SQUARED 0.513, read-out: LUCIFERASE INFECTION ASSAY - IC50): 4.97 µM"
NC(=O)c1cccc(-c2ccc3ncc(-c4cccs4)n3n2)c1,> 10 µM,,"IC50 (HEPG2TOX_HILL_SLOPE 0.701, HEPG2TOX_R_SQUARED 0.861, PBLUC_HILL_SLOPE 2.21, PBLUC_R_SQUARED 0.712, read-out: LUCIFERASE INFECTION ASSAY - IC50): 4.09 µM"
O=C(Nc1ccc(OC(F)(F)F)cc1)Nc1nnc(C(F)(F)F)s1,0.377 µM,,"IC50 (HEPG2TOX_HILL_SLOPE 2.11, HEPG2TOX_R_SQUARED 0.979, PBLUC_HILL_SLOPE 11.8, PBLUC_R_SQUARED 0.539, read-out: LUCIFERASE INFECTION ASSAY - IC50): 0.313 µM"
CCCCNC(=O)c1c(NC(=O)c2cccc(F)c2F)nc2ccccn12,> 8.86 µM,> 8.86 µM,
O=C(COC(=O)COc1ccc2c3c(c(=O)oc2c1)CCC3)Nc1ccc(F)c(F)c1F,> 10 µM,> 10 µM,
Cc1cccc(OCCCC(=O)Nc2cc(C)n[nH]2)c1,1.35 µM,,"IC50 (HEPG2TOX_HILL_SLOPE 2.94, HEPG2TOX_R_SQUARED 0.896, PBLUC_HILL_SLOPE 6.3, PBLUC_R_SQUARED 0.571, read-out: LUCIFERASE INFECTION ASSAY - IC50): 0.951 µM"
N#CCNc1ccccc1 [(PHENYLAMINO)ACETONITRILE],> 10 µM,> 10 µM,
CCC1CCCCN1CC(O)COC(c1ccc(Cl)cc1)c1ccc(Cl)cc1 (centres undefined),> 10 µM,,"IC50 (PBLUC_HILL_SLOPE 1.73, PBLUC_R_SQUARED 0.487, read-out: LUCIFERASE INFECTION ASSAY - IC50): 5.6 µM"
FC(F)(F)Oc1cccc(-c2nc3ccnc(NCCc4ccncc4)c3[nH]2)c1,> 10 µM,3.37 µM,
N#C/C(=N\Nc1cc(C(F)(F)F)cc(C(F)(F)F)c1)S(=O)(=O)c1cccs1,2 µM,,"IC50 (FFLUC_HILL_SLOPE 43.6, FFLUC_R_SQUARED 0.536, HEPG2TOX_HILL_SLOPE 2.45, HEPG2TOX_R_SQUARED 0.984, PBLUC_HILL_SLOPE 3.51, PBLUC_R_SQUARED 0.744, read-out: LUCIFERASE INFECTION ASSAY - IC50): 1.07 µM"

SMILES,IC90,IC50 [1],other results
CCN(CC)CCN1COc2c(cc(Cl)c3cccnc23)C1,4.94 µM,,"IC50 (HEPG2TOX_HILL_SLOPE 1.86, HEPG2TOX_R_SQUARED 0.951, PBLUC_HILL_SLOPE 8.52, PBLUC_R_SQUARED 0.457, read-out: LUCIFERASE INFECTION ASSAY - IC50): 3.81 µM"
Cn1c(N)c(C(=O)COC(=O)C2(c3ccc(Cl)cc3)CCCC2)c(=O)n(C)c1=O,6.91 µM,,"IC50 (PBLUC_HILL_SLOPE 2.17, PBLUC_R_SQUARED 0.685, read-out: LUCIFERASE INFECTION ASSAY - IC50): 2.5 µM"
COc1cncc(-c2cc3c(cn2)nc(NCCc2cc(OC)ccc2OC)n3C)c1,8.42 µM,,"IC50 (HEPG2TOX_HILL_SLOPE 0.77, HEPG2TOX_R_SQUARED 0.89, PBLUC_HILL_SLOPE 0.989, PBLUC_R_SQUARED 0.368, read-out: LUCIFERASE INFECTION ASSAY - IC50): 0.913 µM"
CCCc1cc(=O)nc(SCC(=O)C23CC4CC(CC(C4)C2)C3)[nH]1,9.67 µM,,"IC50 (PBLUC_HILL_SLOPE 3.05, PBLUC_R_SQUARED 0.0755, read-out: LUCIFERASE INFECTION ASSAY - IC50): 4.7 µM"
CCN(CCNc1ncnc2sc3c(c12)CCC3)c1cccc(C)c1,1.44 µM,,"IC50 (HEPG2TOX_HILL_SLOPE 1.22, HEPG2TOX_R_SQUARED 0.961, PBLUC_HILL_SLOPE 11.3, PBLUC_R_SQUARED 0.508, read-out: LUCIFERASE INFECTION ASSAY - IC50): 1.18 µM"
COc1ccc(/C=C/c2ccc3c(Cl)cc(Cl)c(O)c3n2)cc1,0.43 µM,,"IC50 (HEPG2TOX_HILL_SLOPE 0.83, HEPG2TOX_R_SQUARED 0.868, PBLUC_HILL_SLOPE 16.3, PBLUC_R_SQUARED 0.735, read-out: LUCIFERASE INFECTION ASSAY - IC50): 0.375 µM"
CN1/C(=C/C=C2c3ccccc3-c3ccccc32)C=Cc2ccccc21,> 9.9 µM,,"IC50 (PBLUC_HILL_SLOPE 1.22, PBLUC_R_SQUARED 0.219, read-out: LUCIFERASE INFECTION ASSAY - IC50): 8.03 µM"
CCNC(=O)N1CCc2nc(Nc3cc(C)cc(C)c3)ncc2C1,> 10.1 µM,> 10.1 µM,
CC1C/C(=N\Nc2cc(Cl)cc(Cl)c2)c2cc(Cl)ccc2S1 (centres undefined),> 8.88 µM,,"IC50 (HEPG2TOX_HILL_SLOPE 6.52, HEPG2TOX_R_SQUARED 0.251, PBLUC_HILL_SLOPE 17, PBLUC_R_SQUARED 0.35, read-out: LUCIFERASE INFECTION ASSAY - IC50): 8.47 µM"
FC(F)(F)c1cnc(N/N=C/c2cn(-c3ccccc3)nc2-c2cc3ccccc3o2)c(Cl)c1,> 10 µM,,"IC50 (HEPG2TOX_HILL_SLOPE 5.1, HEPG2TOX_R_SQUARED 0.771, read-out: LUCIFERASE INFECTION ASSAY - IC50): > 10 µM"
CCOc1ccc(C(=O)Nc2nc3ccccn3c2C(=O)NC(C)C)cc1,8.41 µM,,"IC50 (HEPG2TOX_HILL_SLOPE 0.179, HEPG2TOX_R_SQUARED 0.152, PBLUC_HILL_SLOPE 1.27, PBLUC_R_SQUARED 0.525, read-out: LUCIFERASE INFECTION ASSAY - IC50): 1.5 µM"
CCOc1ccccc1C(=O)CN1C(=O)COc2ccccc2C1=O,> 9.72 µM,> 9.72 µM,
CCCCCCCCCCCc1nnc(SCc2ccccc2)n1-c1ccccc1C(F)(F)F,> 6.74 µM,,"IC50 (FFLUC_HILL_SLOPE 1.21, FFLUC_R_SQUARED 0.637, read-out: LUCIFERASE INFECTION ASSAY - IC50): > 6.74 µM"
Clc1ccccc1CNc1ncnc2ccsc12,> 10 µM,> 10 µM,
COc1ccc(-c2nc3ccc(NC(=O)Nc4ccc(F)c(Cl)c4)cn3n2)cc1,8.19 µM,,"IC50 (PBLUC_HILL_SLOPE 3.84, PBLUC_R_SQUARED 0.577, read-out: LUCIFERASE INFECTION ASSAY - IC50): 4.62 µM"
CC(C)(Oc1ccc(Cl)cc1)C(=O)Nc1ccc(F)c(S(=O)(=O)N2CCOCC2)c1,> 10 µM,> 10 µM,
Cc1cc[n+](CC(=O)Nc2ccc(Br)c(C)c2)cc1,> 10 µM,,"IC50 (HEPG2TOX_HILL_SLOPE 5.04, HEPG2TOX_R_SQUARED 0.103, PBLUC_HILL_SLOPE 18.3, PBLUC_R_SQUARED 0.0767, read-out: LUCIFERASE INFECTION ASSAY - IC50): 9.35 µM"
O=C(COc1ccccc1)Nc1nc2ccccn2c1C(=O)NC1CCCC1,> 8.72 µM,,"IC50 (PBLUC_HILL_SLOPE 2.22, PBLUC_R_SQUARED 0.0336, read-out: LUCIFERASE INFECTION ASSAY - IC50): 7.18 µM"
Cc1nc2cc(NC(=O)CCCSc3nc4ccccc4[nH]3)ccc2o1,> 10 µM,,"IC50 (PBLUC_HILL_SLOPE 4.06, PBLUC_R_SQUARED 0.0694, read-out: LUCIFERASE INFECTION ASSAY - IC50): 9.96 µM"
Fc1cccc(-c2nc3ccnc(Nc4ccccc4)c3[nH]2)c1,> 10 µM,,"IC50 (HEPG2TOX_HILL_SLOPE 0.405, HEPG2TOX_R_SQUARED 0.516, PBLUC_HILL_SLOPE 2.81, PBLUC_R_SQUARED 0.545, read-out: LUCIFERASE INFECTION ASSAY - IC50): 5.99 µM"
FC(F)(F)c1nc2ccccc2n2c(-c3ccc(Br)cc3)nnc12,> 8.39 µM,> 8.39 µM,

# — ChEMBL document CHEMBL4483862, “Open-source discovery of chemical leads for next-generation chemoprotective antimalarials” (2018)
